Experimental findings from US20100323955A1, “METHODS FOR TREATING OBESITY AND OBESITY RELATED DISEASES AND DISORDERS” (AMYLIN PHARMACEUTICALS, INC., priority 2007, published 2010) are described below.

The nature of assay [1]: Example 4: amylin and phentermine in DIO rats, body weight and body composition. The assay is classed as in vivo, rat. Conditions: after two weeks, FIG. 11C. How it is done: The combination of amylin and catecholaminergic agonist, phentermine, were also tested for effects on changes in body weight and body composition. Phentermine is classically referred to as a catecholaminergic agonist as it actually hits NA/5-HT receptors. DIO male rats were fattened and divided into four treatment groups, as described above. Each group was implanted with subcutaneous osmotic mini-pumps and/or inserted with an oral gavage, designed to deliver vehicle, phentermine (10 mg/kg/day), amylin (100 μg/kg/day) or phentermine (10 mg/kg/day)+amylin (100 μg/kg/day) for a 14 day period. The mini-pump contained either vehicle (50% DMSO in water) or amylin while the oral gavage administered either sterile water or phentermine Body weight was recorded daily and body composition was measured prior to and after drug treatment using NMR.

Assay [2] can be described thus: Example 8: 24-week randomized, double-blind clinical study of pramlintide and metreleptin in overweight and obese subjects. The class given is in vivo, human. Conditions: for rate of change in body weight, late rate (12-20 weeks): 24-week study, FIG. 24. How it is done: To evaluate inter alia the safety, tolerability and effect of the combination of an amylin agonist (pramlintide) and a leptin (metreleptin) on changes in body weight, a 24-week, randomized, double-blind, active-drug-controlled, multicenter study was conducted under USFDA approved protocols. Secondary objectives of the study were the determination of the pharmacokinetics of pramlintide and leptin, waist circumference, rate of change in body weight, and patient reported outcomes including for example without limitation perception of well-being related to weight change and mood. The study enrolled overweight and obese subjects with defined BMI ([…]), with enrollment statistics as provided in Table 2. […] Subjects treated with pramlintide/metreleptin lost an average of 25 pounds from the start of the 24-week study compared with an average of 17 pounds for subjects treated with pramlintide alone.
In an initial lead-in phase, all subjects received dietary instructions and treatment with pramlintide at 180 mcg BID for two weeks, followed by pramlintide at 360 mcg BID for two weeks. Subjects who completed the 4-week lead-in period and who lost 2-8 percent body weight during this period were eligible to continue the study. The term “enrolled” (Table 2) refers to subjects (N=177) receiving at least one dose of pramlintide during the lead-in period. The term “non-randomized” refers to subjects not continuing in the study past the lead-in period. The term “evaluable” refers to subjects who completed Visit 9 (Week 16) study procedures and adequately complied with the study protocol.
After the 4-week lead-in period, for the remaining 20 weeks of the study the subjects were randomized in a 2:2:1 ratio to one of three groups with BID treatment of 1) pramlintide 360 mcg/metreleptin 5 mg (“Leptin+Pramlintide”); 2) pramlintide 360 mcg/placebo (“Pramlintide”); or 3) metreleptin 5 mg/placebo (“Leptin”).

A short description of assay [3]: Example 5: amylin and rimonabant (CB-1 antagonist) in DIO rats, body weight and body composition. The class given is in vivo, rat. The settings on record: after two weeks, FIG. 12C. How it is done: These rats were developed by Barry Levin from a line of Crl:CD®(SD)BR rats that are prone to become obese on a diet relatively high in fat and energy. They were housed individually in shoebox cages at 22 C in a 12/12-hour light dark cycle. […] Rats were habituated to oral gavage for 1 week prior to treatment. Rimonabant was administered at a range of doses (0.1, 0.3, 1.0, 3.0. 10 mg/kg/day) by oral gavage. Amylin (dissolved in 50% DMSO sterile water) or vehicle was administered by mini-pump (100 μg/kg/day). Rimonabant was always delivered just prior to lights out. Food intake and body weight were measured at 1 and 2 weeks post-treatment. Body composition was measured prior to and after drug treatment using NMR (Echo Medical Systems, Houston, Tex.). For body composition measurements, rats were briefly placed (˜1 min) in a well-ventilated plexiglass tube that was then inserted into a specialized rodent NMR machine. Rats were scanned prior to pump implantation and on the final day of the experiment. This enabled the calculation of changes in actual grams of fat and dry lean tissue (e.g., grams of body fat after treatment−grams of body fat at baseline=change in grams of body fat) and changes in % body composition for fat and dry lean tissue (e.g., % body fat after treatment−% body fat at baseline=change in % body fat).

The nature of assay [4]: Example 4: amylin and sibutramine in DIO rats, body weight and body composition. The assay is classed as in vivo, rat. Conditions: after two weeks, FIG. 10C. As to the method:
(§1) Rat amylin was dissolved in 50% DMSO in sterile water and sibutramine was dissolved in sterile water. Each group was implanted with subcutaneous osmotic mini-pumps designed to deliver vehicle, sibutramine (3 mg/kg/day) or amylin (100 μg/kg/day) for a 14 day period. Body weight and food intake were recorded daily. Body composition was measured prior to and after drug treatment using NMR (Echo Medical Systems, Houston, Tex.). For body composition measurements, rats were briefly placed (˜1 min) in a well-ventilated plexiglass tube that was then inserted into a specialized rodent NMR machine. Rats were scanned prior to pump implantation and on the final day of the experiment. This enabled the calculation of changes in actual grams of fat and dry lean tissue (e.g., grams of body fat after treatment−grams of body fat at baseline=change in grams of body fat) and changes in % body composition for fat and dry lean tissue (e.g., % body fat after treatment−% body fat at baseline=change in % body fat).

The nature of assay [5]: Example 7: amylin and PYY(3-36) in DIO rats, body weight and body composition. The assay is classed as in vivo, rat. The settings on record: after two weeks, FIG. 16C. As to the method:
as §1, with “Food intake and body weight” for “Rat amylin”, “was” for “was dissolved in 50% DMSO in sterile water and sibutramine was dissolved in sterile water. Each group was implanted with subcutaneous osmotic mini-pumps designed to deliver vehicle, sibutramine (3 mg/kg/day) or amylin (100 μg/kg/day) for a 14 day period. Body weight and food intake were”

Assay [6] is described as follows: Example 3: serum leptin levels (immunoassay) in DIO prone and normal HSD rats after amylin. The settings on record: amylin 100 μg/kg/day, 14 days, FIG. 8. The assay is classed as in vivo, rat. How it is done: DIO prone and normal HSD rats were divided into three treatment groups. Two groups were implanted with subcutaneous osmotic mini-pumps (DURECT Corp., Cupertino, Calif.) designed to deliver vehicle or amylin (100 μg/kg/day) and the third group was pair-fed to the amount consumed by the amylin-treated group for a 14 day period. Serum leptin levels were determined by immunoassays using a commercial kit (Linco Research, Inc., St. Charles, Mo.). […] Thus, DIO prone rats are hyper-leptinemic.

The nature of assay [7]: Example 6: amylin and exendin-4 analog in DIO rats, body weight and body composition. The assay is classed as in vivo, rat. Conditions: after two weeks, FIG. 15C. As to the method:
[…]. Prior to drug administration rats had typically attained a mean body weight of 500 g Exendin-4 analog was administered by minipump at a range of doses (0.3, 1, 3, 10, 30 μg/kg/day). Amylin (dissolved in 50% DMSO in water) or vehicle was administered by mini-pump (100 μg/kg/day). Body weight and food intake was recorded daily. Body composition was measured prior to and after drug treatment using NMR (Echo Medical Systems, Houston, Tex.). For body composition measurements, rats were briefly placed (˜1 min) in a well-ventilated plexiglass tube that was then inserted into a specialized rodent NMR machine. Rats were scanned prior to pump implantation and on the final day of the experiment. This enabled the calculation of changes in actual grams of fat and dry lean tissue (e.g., grams of body fat after treatment−grams of body fat at baseline=change in grams of body fat) and changes in % body composition for fat and dry lean tissue (e.g., % body fat after treatment−% body fat at baseline=change in % body fat).

Regarding `CC(C)(N)Cc1ccccc1` [phentermine, reference compound], in assay [1], the “changes in body protein (lean (protein) mass)” value (from here on “changes in body protein”) is recorded as “unchanged or tended to be lost”.
In the case of `CC[C@H](C)[C@H](NC(=O)[C@@H]1CCCN1C(=O)CNC(=O)[C@H](Cc1ccccc1)NC(=O)[C@H](CC(N)=O)NC(=O)[C@H](CC(N)=O)NC(=O)[C@H](CO)NC(=O)[C@H](CO)NC(=O)[C@H](Cc1c[nH]cn1)NC(=O)[C@@H](NC(=O)[C@H](CC(C)C)NC(=O)[C@H](Cc1ccccc1)NC(=O)[C@H](CC(N)=O)NC(=O)[C@H](C)NC(=O)[C@H](CC(C)C)NC(=O)[C@H](CCCNC(=N)N)NC(=O)[C@H](CCC(N)=O)NC(=O)[C@@H](NC(=O)[C@H](C)NC(=O)[C@@H]1CSSC[C@H](NC(=O)[C@@H](N)CCCCN)C(=O)N[C@@H](CC(N)=O)C(=O)N[C@@H]([C@@H](C)O)C(=O)N[C@@H](C)C(=O)N[C@@H]([C@@H](C)O)C(=O)N1)[C@@H](C)O)C(C)C)C(=O)N[C@@H](CC(C)C)C(=O)N1CCC[C@H]1C(=O)N1CCC[C@H]1C(=O)N[C@H](C(=O)N[C@@H](CC(N)=O)C(=O)N[C@H](C(=O)NCC(=O)N[C@@H](CO)C(=O)N[C@@H](CC(N)=O)C(=O)N[C@H](C(=O)N[C@@H](Cc1ccc(O)cc1)C(N)=O)[C@@H](C)O)C(C)C)[C@@H](C)O` [pramlintide, ^25,28,29Pro-h-amylin], in assay [2] (4-week lead-in, all subjects received pramlintide 180 then 360 mcg BID, columns name the later randomization groups), the “Mean Change in Body Weight (kg) over lead-in period” value was -3.65 kg. Also, the “rate of change in body weight, late rate (12-20 weeks)” value in assay [2] was “approached a late rate of zero”. For the same molecule, the “body weight reduced on average at the end of the 24-week study” value in assay [2] (overweight and obese subjects, pramlintide 360 mcg BID, metreleptin 5 mg BID, p<0.001) was found to be 8.4%.
Turning to `Cc1c(C(=O)NN2CCCCC2)nn(-c2ccc(Cl)cc2Cl)c1-c1ccc(Cl)cc1` [rimonabant, reference compound], in assay [3], the “changes in body protein” value is recorded as “relatively equivalent increase in lean (protein) mass”.
`CC(C)CC(N(C)C)C1(c2ccc(Cl)cc2)CCC1` (stereo not drawn) [sibutramine, reference compound]: the “changes in body protein” value in assay [4] is given as “relatively unchanged”.
Rat amylin: the “changes in body protein” value in assay [5] is on record as “increase in lean (protein) mass”; in assay [3] it was “relatively equivalent increase in lean (protein) mass”; in assay [1] it was “preserved lean (protein) mass”; in assay [4] it was “increase in lean (protein) mass”; in assay [7] it was “relatively equivalent increase in lean (protein) mass”. The “plasma (serum) leptin levels, DIO prone animals” value in assay [6] (DIO prone rats) is listed as “significantly reduced”. Also, in assay [6] (normal HSD rats), the “plasma (serum) leptin levels, normal animals” value is recorded as “significantly reduced”.
For the molecule ^14Leu-exendin-4 [Exendin-4 analog], the “changes in body protein” value in assay [7] is “relatively equivalent increase in lean (protein) mass”.
Take “recombinant methionyl human leptin [metreleptin]”: the “rate of change in body weight, late rate (12-20 weeks)” value in assay [2] was “approached a late rate of zero”.
